“Also recorded” adds a separate entry of the source.
Tests used:
HIV [1] = details: cited from earlier work
H9 cells = assay: Cell number, viability (trypan blue dye exclusion) and growth of H9 cells; format: cell-based
[2] = test system: HIV-IIIB (HIV-1) replication in H9 cells; assay: HIV replication (RT activity) in acute infection of H9 cells; format: cell-based; details: for effect on HIV replication: non-cytotoxic doses of topo II inhibitors added during HIV infection
Protocol: HIV-Acute Infection of H9 Cells by HIV and Drug Treatment: One ml of culture supernatant of H9/HIV-IIIB cells (10^6 /ml) was used after centrifugation (200xg, 20 min) and filtration (0.45 μm) for infecting 10^5 H9 cells in the presence or absence of different levels of CPT, m-AMSA or VP-16. Control cells received equivalent volumes of DMSO. The cells were incubated for 1 h at 37° C., pelleted, washed and resuspended in fresh media. […] (1981) J. Virol. 38: 239-48.
CPT Inhibition of HIV Replication Following Acute Infection of H9 Cells with HIV-IIIB. In order to determine appropriate concentrations of CPT which would permit cell viability and growth while inhibiting viral infection or replication, H9 cells were infected with HIV-IIIB as described above in the absence or presence of different CPT doses. The cells were incubated for 1 h at 37° C., pelleted, washed and resuspended in fresh media. Reverse transcriptase (RT) activity in the culture media was measured seven days after infection.
Since CPT is an anticancer drug and a known topo I inhibitor, its effects on HIV replication were compared to those of other anticancer drugs which are known to inhibit the related topoisomerase II enzyme.

HIV [3] = details: chronically infected cell lines; cited from earlier work
[4] = 0.5 μM VP16, day 6 post-infect.
[5] = 0.5 μM VP16, day 7 post-infect.
[6] = 0.5 μM VP16, day 8 post-infect.
[7] = 0.5 μM VP16, day 9 post-infect.
[8] = 1.5 μM VP16, day 6 post-infect.
[9] = 1.5 μM VP16, day 7 post-infect.
[10] = 1.5 μM VP16, day 8 post-infect.
[11] = 1.5 μM VP16, day 9 post-infect.
[12] = 0.4 μM m-Amsa, day 6 post-infect.
[13] = 0.4 μM m-Amsa, day 7 post-infect.
[14] = 0.4 μM m-Amsa, day 8 post-infect.
[15] = 0.4 μM m-Amsa, day 9 post-infect.
[16] = 1 μM m-Amsa, day 6 post-infect.
[17] = 1 μM m-Amsa, day 7 post-infect.
[18] = 1 μM m-Amsa, day 8 post-infect.
[19] = 1 μM m-Amsa, day 9 post-infect.

Compound: Cc1cn(C2CC(N=[N+]=[N-])C(CO)O2)c(=O)[nH]c1=O (stereo not shown) [AZT]
- block of HIV infection at cell surface or at the level of reverse transcriptase (HIV [1]): known to block HIV infection

Compound: COc1cc(C2c3cc4c(cc3C(OC3OC5COC(C)OC5C(O)C3O)C3COC(=O)C23)OCO4)cc(OC)c1O (stereo not shown) [VP-16]
- No. Cells (H9 cells; [4]): 1 × 10^6
- No. Cells (H9 cells; [5]): 1.6 × 10^6
- No. Cells (H9 cells; [6]): 2.4 × 10^6
- No. Cells (H9 cells; [7]): 3 × 10^6
- No. Cells (H9 cells; [8]): 1 × 10^6
- No. Cells (H9 cells; [9]): 2 × 10^6
- No. Cells (H9 cells; [10]): 2.4 × 10^6
- No. Cells (H9 cells; [11]): 4 × 10^6
- RT/Cell [2, 4]: 26283 cpm/10^5 cells
- RT/Cell [2, 5]: 26143 cpm/10^5 cells
- RT/Cell [2, 6]: 29158 cpm/10^5 cells
- RT/Cell [2, 7]: 25183 cpm/10^5 cells
- RT/Cell [2, 8]: 32242 cpm/10^5 cells
- RT/Cell [2, 9]: 33626 cpm/10^5 cells
- RT/Cell [2, 10]: 30675 cpm/10^5 cells
- RT/Cell [2, 11]: 29194 cpm/10^5 cells
- effect on HIV replication [2]: No effect on HIV replication was observed; also recorded: do not have any significant effect on HIV replication

Compound: COc1cc(NS(C)(=O)=O)ccc1Nc1c2ccccc2nc2ccccc12 [m-AMSA]
- No. Cells (H9 cells; [12]): 4 × 10^5
- No. Cells (H9 cells; [13]): 9 × 10^5
- No. Cells (H9 cells; [14]): 1.3 × 10^6
- No. Cells (H9 cells; [15]): 2 × 10^6
- No. Cells (H9 cells; [16]): 4 × 10^5
- No. Cells (H9 cells; [17]): 7.5 × 10^5
- No. Cells (H9 cells; [18]): 1.1 × 10^6
- No. Cells (H9 cells; [19]): 2 × 10^6
- RT/Cell [2, 12]: 36070 cpm/10^5 cells
- RT/Cell [2, 13]: 25372 cpm/10^5 cells
- RT/Cell [2, 14]: 38594 cpm/10^5 cells
- RT/Cell [2, 15]: 37556 cpm/10^5 cells
- RT/Cell [2, 16]: 32674 cpm/10^5 cells
- RT/Cell [2, 17]: 40057 cpm/10^5 cells
- RT/Cell [2, 18]: 45558 cpm/10^5 cells
- RT/Cell [2, 19]: 36442 cpm/10^5 cells
- effect on HIV replication [2]: do not have any significant effect on HIV replication
- effect on HIV replication ([2]; listed as m-Amsa): No effect on HIV replication was observed

Compound: interferon α
- suppression of HIV expression (HIV [3]): reported to suppress HIV expression in chronically infected cell lines
